Values quoted from earlier work in US20110160154A1, “SUBSTITUTED PIPERAZINES” (Auspex Pharmaceuticals, Inc., priority 2007, published 2011).

Legend:
[1] = system: late sodium current (INa); conditions: literature value (Antzelevitch et al. 2004); read-out: IC50 for inhibition of late sodium current (INa)
[2] = background statement; ranolazine must be taken frequently

- IC50 [1]: 5 to 21 µM
- half-life [2]: less than two
SMILES: COc1ccccc1OCC(O)CN1CCN(CC(=O)Nc2c(C)cccc2C)CC1 (centres unmarked) [ranolazine, N-(2,6-dimethyl-phenyl)-2-{4-[2-hydroxy-3-(2-methoxy-phenoxy)-propyl]-piperazin-1-yl}-acetamide]
